Assay results: patent publication US6458872B1, “Benzotriazole UV absorbers having enhanced durability” (Ciba Specialty Chemicals Corporation, priority 1997, dated 2002)
Blank lines part the entries; values can stand above or below the molecule they belong to.

Key:
Format in all cases: physicochemical
[1] = Durability in solvent cast PVC films, Atlas C165 Weather-Ometer (Example 83); details: PVC film; for % Loss / Absorbance (max) Loss units: 1100 hrs
Method: (§1) The durability of representative benzotriazoles in thermoplastic substrates is determined by incorporating various test compounds into solvent cast films of poly(vinyl chloride), polycarbonate and polystyrene resins. The free standing films are mounted into cardboard holders, secured in metal frames and exposed in an Atlas C165 Xenon-arc Weather-Ometer under dry conditions according to ASTM G26 for 1100 and 2200 hour exposure. Loss of UV absorber is determined by monitoring the loss of diagnostic UV absorption as described earlier. Performance is measured by a change in color or the physical integrity of the film.
PVC films of GEON® 27 (Geon Co.) are solvent cast as described above with warm tetrahydrofuran (THF) and exposed in an Atlas C165 Weather-Ometer as described in Example 60 for 1100 hours.

[2] = Durability in solvent cast polycarbonate film, Atlas C165 Xenon-arc, ASTM G26 (Example 80); details: for % Loss / Absorbance (max) Loss units: 1100 hrs
Method: as §1
Polycarbonate flake (LEXAN® 145, General Electric) is dissolved in methylene chloride at room temperature along with between 1 and 3% by weight of test benzotriazole, based on the polycarbonate. Films are cast using a calibrated drawdown bar to prepare 1 mil thick film after drying.

[3] = UV absorption data (Example 74); parameters: ε @ λ max: unit not given beside the values
[4] = Yellowness color of solutions in butyl acetate, Macbeth Color-Eye (Example 75); details: 30 mg/100 mL in butyl acetate; for DE: corresponding Yellowness Index value; for b: yellowness, Macbeth Color-Eye
Method: The following examples show the difference in color between some of the instant compounds as measured by a Macbeth Color-Eye instrument at a concentration of 30 mg/100 mL in butyl acetate. […] In the table, the compounds are listed by increasing b value. The instrument measures yellowness as b and DE is the corresponding Yellowness Index value.

[5] = UV absorption data (Example 74); details: 20 mg/l concentrations; not the molar extinction values
Method: In the following examples the absorbance at 375 nm is reported for 20 mg/l concentrations. This is not the molar extinction values.

[6] = Loss of UV absorber from high solids thermoset acrylic clear coat, Xenon Arc Weather-Ometer (Example 77); details: after 1211 hours Xenon arc exposure; clear coat with 1% hindered amine; UV absorber at 5 mmol % by weight
Method: To ascertain the effect on thermal durability and loss rate from a high solids thermoset acrylic coating of various 2H-benzotriazole UV absorbers substituted by a variety of electron withdrawing and electron donating groups, the following tests are carried out.
A high solids thermoset acrylic clear coat is prepared by mixing an experimental acrylic polyol resin and hexamethoxymethylmelamine (Resimene® 747, Monsanto) at a solids ratio of 60/40. The dodecylbenzene sulfonic acid catalyst (Nacure® 5225; King Industries) is added at 0.70% by weight. A flow aid Modaflow® (Monsanto) is added at 0.25% by weight to form a model acrylic melamine resin system.
The model clear coat is reduced with xylene to a viscosity of 26-27 second using a Zahn #2 cup and applied via a conventional air spray at 50 psi (3.5 Kg/cm^2) over a 1″×3″ (2.54 cm×7.62 cm) quartz slide. Cure is achieved by baking the slide for 30 minutes at 260° F. (127° C.). The clear coat is stabilized with 1% by weight of a hindered amine light stabilizer, bis-(1-octyloxy-2,2,6,6-tetramethylpiperidin-4-yl)sebacate, (TINUVIN® 123, Ciba-Geigy). The various test benzotriazole UV absorbers are incorporated at the 5 mmol % by weight in the clear coat. The film thickness on the quartz slides range from 1.15 to 1.41 mils (0.029 to 0.036 mm).
The films on the quartz slides are weathered according to the following conditions in Xenon Arc Weather-Ometer with a controlled irradiance at 6500 W, using inner quartz and outer borosilicate S-type filter. The irradiation cycle is as follows: 40 minutes of straight irradiation with no water spray, followed by 20 minutes of light plus front spray, followed by 60 minutes of light irradiation and finally by 60 minutes dart plus rear spray (condensation). The setting is at 0.55 W/M^2 at 340 nm, 1.98 kJ/hour. In the light cycle the black panel temperature is controlled at 70±2° C. The relative humidity in the light cycle is in the range of 50-55% and in the dark cycle 100%. The absorbance of the long wavelength UV band as a function of Xenon arc weathering hours are recorded in the table below.
To follow the loss of UV absorbers from the clear coats, UV spectra are measured initially and after weathering at regular time intervals. The UV spectrophotometer measures absorbance linearly up to 5.5 absorbance units using a reference beam attenuation technique.
This is tested by following the ratio of absorbance of the band at about 300 nm and the band at about 340 nm.
The data in the table below are based on formula A after 1211 hours of exposure of the clear coats containing the test benzotriazole UV absorbers.

[7] = Loss of UV absorber from high solids thermoset acrylic melamine clear coat, Xenon-Arc X180 cycle (Example 78); details: for durability (low loss rate absorbance values after exposure): in words, summary of the tables of Example 78
Excerpt: Following the general procedure of Example 77, a number of additional benzotriazole test compounds are incorporated into a high solids thermoset acrylic melamine resin at such concentrations between 1.93 and 3% by weight to give equal molar concentrations of test benzotriazole in equal film thickness, and sufficient to give a starting absorbance of approximately 2.0 absorbance units.
The test discs are exposed in a Xenon-Arc Weather-Ometer at X180 cycle (0.45 Watts/M^2). The initial UV absorbance is measured followed by measurements at roughly 250 hour intervals for the first 2000 hours and every 500 hours thereafter. Each clear coat also contains 1% by weight of a hindered amine light stabilizer, bis-(1-octyloxy-2,2,6,6-tetramethylpiperidin-4-yl) sebacate, as well.

[8] = after 1253 hours of exposure, starting absorbance approximately 2.0, 1% hindered amine

Absorbance (max) 1100 hrs ([1]; 2.5 wt %): 1.103 | % Loss ([1]; 2.5 wt %): 3.1% | Absorbance (max) Loss units ([1]; 2.5 wt %): 0.036 | Absorbance (max) 0 hrs ([1]; 2.5 wt %, AA at 368 nm): 1.149 | Absorbance (max) 1100 hrs ([2]; 2.5 wt %): 1.300 | % Loss ([2]; 2.5 wt %): 2.5% | Absorbance (max) Loss units ([2]; 2.5 wt %): 0.033 | Absorbance (max) 0 hrs ([2]; 2.5 wt %, AA at 364 nm): 1.333
SMILES: CCCCCCCCCS(=O)(=O)c1ccc2nn(-c3cc(C(C)(C)CC(C)(C)C)cc(C(C)(C)c4ccccc4)c3O)nc2c1 [AA, 5-nonylsulfonyl-2-(2-hydroxy-3-α-cumyl-5-tert-octylphenyl)-2H-benzotriazole]

SMILES: CCCCS(=O)(=O)c1ccc2nn(-c3cc(C(C)(C)CC(C)(C)C)cc(C(C)(C)c4ccccc4)c3O)nc2c1 [CC, 5-butylsulfonyl-2-(2-hydroxy-3-α-cumyl-5-tert-octylphenyl)-2H-benzotriazole]
ε @ λ max [3]: 14,100 | λ max nm [3]: 359 nm | DE [4]: 3.35 | b [4]: 2.84 | Absorbance @ 375 nm [5]: 0.42

Units Absorbance Loss [6]: 1.7982
SMILES: CC(C)(C)CC(C)(C)c1ccc(O)c(-n2nc3ccccc3n2)c1 [Compound A, 2-(2-hydroxy-5-tert-octylphenyl)-2H-benzotriazole]

Units Absorbance Loss [6]: 1.6300
SMILES: CC(C)(C)CC(C)(C)c1cc(Cc2cc(C(C)(C)CC(C)(C)C)cc(-n3nc4ccccc4n3)c2O)c(O)c(-n2nc3ccccc3n2)c1 [Compound B, 2,2′-Methylene-bis[6-(2H-benzotriazol-2-yl)-4-tert-octylphenol]]

Units Absorbance Loss [6]: 0.3712
SMILES: CC(C)(C)c1cc(CCCO)cc(-n2nc3ccccc3n2)c1O [Compound L]

SMILES: CC(C)(c1ccccc1)c1cc(-n2nc3ccccc3n2)c(O)c(C(C)(C)c2ccccc2)c1 [Compound P, 2-(2-hydroxy-3,5-di-α-cumylphenyl)-2H-benzotriazole]
Absorbance (max) 1100 hrs ([1]; 1.5 wt %): 1.022 | % Loss ([1]; 1.5 wt %): 10.7% | Absorbance (max) Loss units ([1]; 1.5 wt %): 0.123 | Absorbance (max) 0 hrs ([1]; 1.5 wt %, P at 347 nm): 1.145 | Absorbance (max) 1100 hrs ([1]; 2.5 wt %): 2.081 | % Loss ([1]; 2.5 wt %): 5.6% | Absorbance (max) Loss units ([1]; 2.5 wt %): 0.130 | Absorbance (max) 0 hrs ([1]; 2.5 wt %, AA at 368 nm): 2.211 | Units Absorbance Loss [6]: 0.2576 | Absorbance (max) 1100 hrs ([2]; 1.5 wt %): 0.919 | % Loss ([2]; 1.5 wt %): 13.5% | Absorbance (max) Loss units ([2]; 1.5 wt %): 0.143 | Absorbance (max) 0 hrs ([2]; 1.5 wt %, P at 347 nm): 1.062 | Absorbance (max) 1100 hrs ([2]; 2.5 wt %): 1.844 | % Loss ([2]; 2.5 wt %): 12.3% | Absorbance (max) Loss units ([2]; 2.5 wt %): 0.260 | Absorbance (max) 0 hrs ([2]; 2.5 wt %, AA at 364 nm): 2.104

SMILES: CC(C)(C)CC(C)(C)c1cc(-n2nc3ccc(S(=O)(=O)c4ccccc4)cc3n2)c(O)c(C(C)(C)c2ccccc2)c1 [Compound U, 5-phenylsulfonyl-2-(2-hydroxy-3-α-cumyl-5-tert-octylphenyl)-2H-benzotriazole]
Units Absorbance Loss ([7]; after 1264 hours of exposure): 0.0944 | Units Absorbance Loss ([7]; after 1518 hours of exposure): 0.1114 | durability (low loss rate absorbance values after exposure) [7]: especially durable | ε @ λ max [3]: 17,300 | λ max nm [3]: 362 nm | DE [4]: 4.42 | b [4]: 3.75 | Absorbance @ 375 nm [5]: 0.50

SMILES: COC(=O)c1ccc2nn(-c3cc(C(C)(C)CC(C)(C)C)cc(C(C)(C)c4ccccc4)c3O)nc2c1 [DD, 5-carbomethoxy-2-(2-hydroxy-3-α-cumyl-5-tert-octylphenyl)-2H-benzotriazole]
ε @ λ max [3]: 15,700 | λ max nm [3]: 358 nm | DE [4]: 2.25 | b [4]: 1.85 | Absorbance @ 375 nm [5]: 0.42

Units Absorbance Loss [6]: 1.4002
SMILES: COC(=O)CCc1ccc(O)c(-n2nc3ccccc3n2)c1 [D]

Units Absorbance Loss [6]: 1.1872
SMILES: COc1ccc2nn(-c3cc(C)cc(C(C)(C)C)c3O)nc2c1 [E]

DE [4]: 0.72 | b [4]: 0.54
SMILES: CC(C)CCCCCOC(=O)CCc1cc(-n2nc3ccc(C(F)(F)F)cc3n2)c(O)c(C(C)(C)C)c1 [FF, isooctyl 3-(5-trifluoromethyl-2H-benzotriazol-2-yl)-5-tert-butyl-4-hydroxyhydro-cinnamate]

Units Absorbance Loss [6]: 0.5259
SMILES: COC(=O)CCc1cc(-n2nc3ccccc3n2)c(O)c(C(C)(C)C)c1 [F]

Units Absorbance Loss [6]: 0.4527
SMILES: CC(C)(c1ccccc1)c1ccc(O)c(-n2nc3ccccc3n2)c1 [G]

SMILES: CC(C)(C)CC(C)(C)c1cc(C(C)(C)c2ccccc2)cc(-n2nc3ccccc3n2)c1O [I]
Units Absorbance Loss [6]: 0.4299

SMILES: CC(C)(C)CC(C)(C)c1cc(-n2nc3ccccc3n2)c(O)c(C(C)(C)CC(C)(C)C)c1 [K]
Units Absorbance Loss [6]: 0.3777

Units Absorbance Loss [6]: 0.3433
SMILES: COC(=O)CCc1cc(-n2nc3ccccc3n2)c(O)c(C(C)(C)c2ccccc2)c1 [M]

Units Absorbance Loss [6]: 0.3098
SMILES: CC(C)(C)c1cc(-n2nc3ccc(C#N)cc3n2)c(O)c(C(C)(C)C)c1 [N]

Units Absorbance Loss [7, 8]: 0.2424 | Units Absorbance Loss ([7]; after 1489 hours of exposure): 0.3724 | Units Absorbance Loss ([7]; after 2521 hours of exposure): 0.4824
SMILES: CC(C)(c1ccccc1)c1cc(-c2ccccc2)c(O)c(-n2nc3ccccc3n2)c1 [R]

SMILES: CC(C)(C)c1cc(-n2nc3ccc(S(=O)(=O)c4ccccc4)cc3n2)c(O)c(C(C)(C)C)c1 [T]
Units Absorbance Loss [7, 8]: 0.1827 | Units Absorbance Loss ([7]; after 1264 hours of exposure): 0.1965 | Units Absorbance Loss ([7]; after 1489 hours of exposure): 0.2654 | Units Absorbance Loss ([7]; after 1518 hours of exposure): 0.2423 | Units Absorbance Loss ([7]; after 2521 hours of exposure): 0.3570 | durability (low loss rate absorbance values after exposure) [7]: significantly more durable

SMILES: CC(C)(C)CC(C)(C)c1cc(-n2nc3ccc(Cl)cc3n2)c(O)c(C(C)(C)c2ccccc2)c1 [V, 5-Chloro-2-(2-hydroxy-3-α-cumyl-5-tert-octylphenyl)-2H-benzotriazole]
Units Absorbance Loss ([7]; after 1264 hours of exposure): 0.1719 | Units Absorbance Loss ([7]; after 1518 hours of exposure): 0.1955 | durability (low loss rate absorbance values after exposure) [7]: especially durable

Units Absorbance Loss ([7]; after 1264 hours of exposure): 0.1655 | Units Absorbance Loss ([7]; after 1518 hours of exposure): 0.1668 | durability (low loss rate absorbance values after exposure) [7]: especially durable
SMILES: CC(C)(C)CC(C)(C)c1cc(-n2nc3ccc(F)cc3n2)c(O)c(C(C)(C)c2ccccc2)c1 [W, 5-Fluoro-2-(2-hydroxy-3-α-cumyl-5-tert-octylphenyl)-2H-benzotriazole]

Units Absorbance Loss ([7]; after 1264 hours of exposure): 0.1796 | Units Absorbance Loss ([7]; after 1518 hours of exposure): 0.2220
SMILES: CC(C)(C)CC(C)(C)c1cc(-c2ccccc2)c(O)c(-n2nc3ccccc3n2)c1 [X]
